Test results reported in US8785452B2, “Anti-infective compounds” (priority 2008, dated 2014).
Where two headings read alike, the source gives them in different places.

How the values were obtained:
[1] = system: M. tuberculosis H37Rv-GFP; experiment: microbe, parasite or virus in culture; type: cell-based, Mycobacterium tuberculosis; conditions: Mycobacterium tuberculosis, H37RV, Macrophage; for inhibition at 0.2 µM: read-out: QIM Confirm % Inhibition 0.2 uM; for inhibition at 2 µM: read-out: QIM Confirm % Inhibition 2 uM
Raw264.7 cells = experiment: Cell number (CellNb) from image analysis of the phenotypic cell-based assay
[2] = system: M. tuberculosis H37Rv-GFP; experiment: microbe, parasite or virus in culture; type: cell-based; conditions: Mycobacterium tuberculosis; for inhibition at 0.2 µM: read-out: QUM Confirm % Inhibition 0.2 uM; for inhibition at 2 µM: read-out: QUM Confirm % Inhibition 2 uM; for inhibition at 20 µM: read-out: QUM Confirm % Inhibition 20 uM
[3] = confirmation, 0.2 uM, intracellular
[4] = confirmation, 2 uM, intracellular
[5] = confirmation, 20 uM, read-out: QIM Confirm % Inhibition 20 uM
[6] = primary screen, 20 μM, read-out: Primary QIM % Inhibition
[7] = read-out: Primary QIM % Inhibition
[8] = read-out: QIM Confirm % Inhibition 20 uM

## Brc1ccc(/C=N/Nc2nc(N3CCOCC3)nc(N3CCOCC3)n2)o1 [IPK 000 011 65]
[1]; [3]
  inhibition at 0.2 µM: 4.7%
[1]; [4]
  inhibition at 2 µM: 23.4%
[1]; [5]
  inhibition at 20 µM: 41.9%
[1]; [6]
  inhibition at 20 µM: 6.5%
Raw264.7 cells; confirmation, 0.2 uM
  QIM Confirm CellNb 0.2 uM: 259.6
Raw264.7 cells; confirmation, 2 uM
  QIM Confirm CellNb 2 uM: 336.5
Raw264.7 cells; confirmation, 20 uM
  QIM Confirm CellNb 20 uM: 201.1
Raw264.7 cells; primary screen, 20 μM
  Primary QIM CellNb: 145.5
[2]
  inhibition at 0.2 µM: 39.8%
  inhibition at 2 µM: 40.6%
  inhibition at 20 µM: 96.3%

## O=C(N/N=C/c1ccco1)c1ccncc1 [IPK 000 013 67]
[1]; [7]
  inhibition at 20 µM: 98.7%
[1]
  inhibition at 0.2 µM: 84.1%
  inhibition at 2 µM: 102%
[1]; [8]
  inhibition at 20 µM: 66.7%
Raw264.7 cells
  Primary QIM CellNb: 358.0
  QIM Confirm CellNb 0.2 uM: 452.5
  QIM Confirm CellNb 2 uM: 545.1
  QIM Confirm CellNb 20 uM: 457.3
[2]
  inhibition at 0.2 µM: 49.4%
  inhibition at 2 µM: 90.2%
  inhibition at 20 µM: 69.7%

## O=C(N/N=C/C=C/c1ccccc1)c1ccncc1 [IPK 000 013 68]
[1]; [3]
  inhibition at 0.2 µM: 50.9%
[1]; [4]
  inhibition at 2 µM: 102%
[1]; [5]
  inhibition at 20 µM: 67.2%
[1]; [6]
  inhibition at 20 µM: 65%
Raw264.7 cells; confirmation, 0.2 uM
  QIM Confirm CellNb 0.2 uM: 400.1
Raw264.7 cells; confirmation, 2 uM
  QIM Confirm CellNb 2 uM: 528.8
Raw264.7 cells; confirmation, 20 uM
  QIM Confirm CellNb 20 uM: 438.8
Raw264.7 cells; primary screen, 20 μM
  Primary QIM CellNb: 276.3
[2]
  inhibition at 0.2 µM: 50.4%
  inhibition at 2 µM: 77.1%
  inhibition at 20 µM: 77.6%

## CCCCc1ccc(/C=N/NC(=O)c2ccncc2)cc1 [IPK 000 013 69]
[1]; [3]
  inhibition at 0.2 µM: 68.9%
[1]; [4]
  inhibition at 2 µM: 105%
[1]; [5]
  inhibition at 20 µM: 58.6%
[1]; [6]
  inhibition at 20 µM: 91.3%
Raw264.7 cells; confirmation, 0.2 uM
  QIM Confirm CellNb 0.2 uM: 405.8
Raw264.7 cells; confirmation, 2 uM
  QIM Confirm CellNb 2 uM: 532.1
Raw264.7 cells; confirmation, 20 uM
  QIM Confirm CellNb 20 uM: 443.3
Raw264.7 cells; primary screen, 20 μM
  Primary QIM CellNb: 327.5
[2]
  inhibition at 0.2 µM: 51.2%
  inhibition at 2 µM: 79.1%
  inhibition at 20 µM: 62.4%

## O=C(NN=C1CCCC1)c1ccncc1 [IPK 000 013 70]
[1]; [3]
  inhibition at 0.2 µM: 50.5%
[1]; [4]
  inhibition at 2 µM: 98.1%
[1]; [5]
  inhibition at 20 µM: 103%
[1]; [6]
  inhibition at 20 µM: 88.3%
Raw264.7 cells; confirmation, 0.2 uM
  QIM Confirm CellNb 0.2 uM: 412.6
Raw264.7 cells; confirmation, 2 uM
  QIM Confirm CellNb 2 uM: 510.9
Raw264.7 cells; confirmation, 20 uM
  QIM Confirm CellNb 20 uM: 518.5
Raw264.7 cells; primary screen, 20 μM
  Primary QIM CellNb: 309.3
[2]
  inhibition at 0.2 µM: 46.3%
  inhibition at 2 µM: 79.4%
  inhibition at 20 µM: 67.6%

## O=C(N/N=C/c1ccccc1F)c1ccncc1 [IPK 000 013 71]
[1]; [3]
  inhibition at 0.2 µM: 86.3%
[1]; [4]
  inhibition at 2 µM: 105%
[1]; [5]
  inhibition at 20 µM: 97.5%
[1]; [6]
  inhibition at 20 µM: 103%
Raw264.7 cells; confirmation, 0.2 uM
  QIM Confirm CellNb 0.2 uM: 476.5
Raw264.7 cells; confirmation, 2 uM
  QIM Confirm CellNb 2 uM: 544.3
Raw264.7 cells; confirmation, 20 uM
  QIM Confirm CellNb 20 uM: 377.4
Raw264.7 cells; primary screen, 20 μM
  Primary QIM CellNb: 358.8
[2]
  inhibition at 0.2 µM: 51.6%
  inhibition at 2 µM: 92.2%
  inhibition at 20 µM: 68.4%

## O=C(NN=C1CCCCC1)c1ccncc1 [IPK 000 013 72]
[1]; [3]
  inhibition at 0.2 µM: 63.2%
[1]; [4]
  inhibition at 2 µM: 104%
[1]; [5]
  inhibition at 20 µM: 101%
[1]; [6]
  inhibition at 20 µM: 82.2%
Raw264.7 cells; confirmation, 0.2 uM
  QIM Confirm CellNb 0.2 uM: 448.5
Raw264.7 cells; confirmation, 2 uM
  QIM Confirm CellNb 2 uM: 541.6
Raw264.7 cells; confirmation, 20 uM
  QIM Confirm CellNb 20 uM: 457.3
Raw264.7 cells; primary screen, 20 μM
  Primary QIM CellNb: 355.5
[2]
  inhibition at 0.2 µM: 57.7%
  inhibition at 2 µM: 73.9%
  inhibition at 20 µM: 98%

## O=C(/C=C/c1ccc(Cl)cc1Cl)c1ccc(Cl)cc1 [IPK 000 015 36]
[1]; [3]
  inhibition at 0.2 µM: 15.8%
[1]; [4]
  inhibition at 2 µM: -4.8%
[1]; [5]
  inhibition at 20 µM: 36.1%
[1]; [6]
  inhibition at 20 µM: 38.1%
Raw264.7 cells; confirmation, 0.2 uM
  QIM Confirm CellNb 0.2 uM: 331.0
Raw264.7 cells; confirmation, 2 uM
  QIM Confirm CellNb 2 uM: 286.0
Raw264.7 cells; confirmation, 20 uM
  QIM Confirm CellNb 20 uM: 168.0
Raw264.7 cells; primary screen, 20 μM
  Primary QIM CellNb: 146.5
[2]
  inhibition at 0.2 µM: 41.9%
  inhibition at 2 µM: 59.4%
  inhibition at 20 µM: 79.5%

## c1ccc(COc2ccc(NCCc3ccncc3)cc2)cc1 [IPK 000 016 00]
[1]; [3]
  inhibition at 0.2 µM: 3.2%
[1]; [4]
  inhibition at 2 µM: 19.4%
[1]; [5]
  inhibition at 20 µM: 37.9%
[1]; [6]
  inhibition at 20 µM: -19%
Raw264.7 cells; confirmation, 0.2 uM
  QIM Confirm CellNb 0.2 uM: 278.8
Raw264.7 cells; confirmation, 2 uM
  QIM Confirm CellNb 2 uM: 265.4
Raw264.7 cells; confirmation, 20 uM
  QIM Confirm CellNb 20 uM: 300.3
Raw264.7 cells; primary screen, 20 μM
  Primary QIM CellNb: 93.0
[2]
  inhibition at 0.2 µM: 47.1%
  inhibition at 2 µM: 48.6%
  inhibition at 20 µM: 68%

## CCOC(=O)c1c(CSc2ccccc2)n(Cc2ccccc2)c2ccc(O)c(CN(C)C)c12 [IPK 000 016 05]
[1]; [7]
  inhibition at 20 µM: 67.9%
[1]
  inhibition at 0.2 µM: -2.2%
  inhibition at 2 µM: 0.8%
[1]; [8]
  inhibition at 20 µM: 43.4%
Raw264.7 cells
  Primary QIM CellNb: 192.0
  QIM Confirm CellNb 0.2 uM: 206.8
  QIM Confirm CellNb 2 uM: 148.9
  QIM Confirm CellNb 20 uM: 282.0
[2]
  inhibition at 0.2 µM: 36.6%
  inhibition at 2 µM: 42.5%
  inhibition at 20 µM: 70%

## O=C(Oc1cccc2ncccc12)c1ccccc1F [IPK 000 018 65]
[1]; [3]
  inhibition at 0.2 µM: 28%
[1]; [4]
  inhibition at 2 µM: 14%
[1]; [5]
  inhibition at 20 µM: 39.2%
[1]; [6]
  inhibition at 20 µM: 23.1%
Raw264.7 cells; confirmation, 0.2 uM
  QIM Confirm CellNb 0.2 uM: 256.6
Raw264.7 cells; confirmation, 2 uM
  QIM Confirm CellNb 2 uM: 218.3
Raw264.7 cells; confirmation, 20 uM
  QIM Confirm CellNb 20 uM: 256.4
Raw264.7 cells; primary screen, 20 μM
  Primary QIM CellNb: 218.0
[2]
  inhibition at 0.2 µM: 36.4%
  inhibition at 2 µM: 54%
  inhibition at 20 µM: 99%
